Among the data in patent US11739098B2 (BRISTOL-MYERS SQUIBB COMPANY, priority 2017, dated 2023) are IC50 values, retold here.

What is called IC50 is the point on the concentration scale where inhibition reaches its midpoint. A low value points to greater potency.

What all share (type): cell-based
One experiment has as its target T1, human TLR8 (Homo sapiens, UniProt Q9NR97).
T1 construct: host or cells: HEK-Blue cells (HEK293-derived reporter line)
T1 sequence (Q9NR97 27-1041): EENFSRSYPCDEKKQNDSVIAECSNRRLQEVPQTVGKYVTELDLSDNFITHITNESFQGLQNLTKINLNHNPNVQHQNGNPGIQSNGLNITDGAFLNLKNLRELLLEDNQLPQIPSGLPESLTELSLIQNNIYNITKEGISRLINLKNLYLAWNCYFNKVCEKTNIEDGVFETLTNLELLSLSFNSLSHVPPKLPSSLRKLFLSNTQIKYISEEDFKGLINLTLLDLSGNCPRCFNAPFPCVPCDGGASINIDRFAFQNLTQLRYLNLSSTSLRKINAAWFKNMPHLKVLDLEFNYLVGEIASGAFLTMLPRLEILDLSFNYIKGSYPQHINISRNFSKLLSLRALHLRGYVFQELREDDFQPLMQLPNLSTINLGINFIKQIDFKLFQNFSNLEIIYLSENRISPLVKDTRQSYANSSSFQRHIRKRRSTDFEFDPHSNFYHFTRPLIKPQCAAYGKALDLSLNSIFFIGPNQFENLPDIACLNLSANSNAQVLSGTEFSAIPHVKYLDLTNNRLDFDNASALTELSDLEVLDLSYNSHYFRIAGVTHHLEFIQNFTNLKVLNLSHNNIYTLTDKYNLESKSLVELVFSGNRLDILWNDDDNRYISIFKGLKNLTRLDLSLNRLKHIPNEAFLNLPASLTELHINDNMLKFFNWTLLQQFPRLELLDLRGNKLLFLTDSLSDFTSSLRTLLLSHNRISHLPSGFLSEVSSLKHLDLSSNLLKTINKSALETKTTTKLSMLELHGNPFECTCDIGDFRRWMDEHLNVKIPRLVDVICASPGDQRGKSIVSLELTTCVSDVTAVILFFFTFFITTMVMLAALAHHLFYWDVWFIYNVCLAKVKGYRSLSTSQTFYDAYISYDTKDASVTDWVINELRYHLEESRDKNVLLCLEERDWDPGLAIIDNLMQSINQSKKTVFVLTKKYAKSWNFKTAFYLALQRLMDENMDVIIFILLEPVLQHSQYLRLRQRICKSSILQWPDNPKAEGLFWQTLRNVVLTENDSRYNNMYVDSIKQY
The experiment can be described thus: TLR8 inhibition reporter assay (HEK-Blue cells, SEAP reporter, R848 stimulation). The settings on record: HEK-Blue cells overexpressing human TLR8, SEAP reporter, R848 15.9 μM. The gist of the method: (§1)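 Cells seeded per well (15000 TLR7, 20,000 TLR8, 25,000 TLR9); compound added over 0.05 nM–50 μM for 30 min at room temperature; agonist added (TLR7 gardiquimod 7.5 μM, TLR8 R848 15.9 μM, TLR9 ODN2006 5 nM); 22 h at 37 °C; SEAP measured; percent inhibition calculated.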
In general terms: Reporter assays use an easily measured gene product as a stand-in for the process of interest.

In a further experiment the target is T2, human TLR9 (Homo sapiens, UniProt Q9NR96).
T2 construct: host or cells: HEK-Blue cells (HEK293-derived reporter line)
T2 sequence (Q9NR96 26-1032): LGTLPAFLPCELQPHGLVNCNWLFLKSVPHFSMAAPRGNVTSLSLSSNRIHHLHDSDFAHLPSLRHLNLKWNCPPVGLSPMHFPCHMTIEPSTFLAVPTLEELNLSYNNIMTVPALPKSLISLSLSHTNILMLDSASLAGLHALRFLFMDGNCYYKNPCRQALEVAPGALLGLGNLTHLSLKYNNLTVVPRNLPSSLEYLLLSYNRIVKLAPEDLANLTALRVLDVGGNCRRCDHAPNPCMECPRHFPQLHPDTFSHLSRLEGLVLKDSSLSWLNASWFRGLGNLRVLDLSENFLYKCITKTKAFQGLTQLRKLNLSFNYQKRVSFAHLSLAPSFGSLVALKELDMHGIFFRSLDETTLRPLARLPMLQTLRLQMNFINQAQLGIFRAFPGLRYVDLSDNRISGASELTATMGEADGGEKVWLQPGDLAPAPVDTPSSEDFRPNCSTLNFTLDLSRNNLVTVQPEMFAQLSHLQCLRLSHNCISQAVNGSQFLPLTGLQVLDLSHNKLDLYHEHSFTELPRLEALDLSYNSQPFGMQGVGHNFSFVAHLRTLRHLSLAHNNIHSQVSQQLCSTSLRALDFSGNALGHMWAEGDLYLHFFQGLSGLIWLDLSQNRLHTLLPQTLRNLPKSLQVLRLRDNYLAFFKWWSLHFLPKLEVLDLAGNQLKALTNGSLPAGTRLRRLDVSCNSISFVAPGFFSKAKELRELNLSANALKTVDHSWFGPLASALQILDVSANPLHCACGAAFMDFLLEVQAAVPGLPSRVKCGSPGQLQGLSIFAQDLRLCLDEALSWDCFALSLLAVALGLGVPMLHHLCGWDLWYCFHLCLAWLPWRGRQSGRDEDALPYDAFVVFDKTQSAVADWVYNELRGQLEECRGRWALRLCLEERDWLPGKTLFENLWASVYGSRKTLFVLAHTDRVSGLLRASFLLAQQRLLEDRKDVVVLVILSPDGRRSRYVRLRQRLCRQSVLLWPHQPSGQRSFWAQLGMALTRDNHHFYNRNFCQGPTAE
The experiment can be described thus: TLR9 inhibition reporter assay (HEK-Blue cells, SEAP reporter, ODN2006 stimulation). The settings on record: HEK-Blue cells overexpressing human TLR9, SEAP reporter, ODN2006 5 nM. Put shortly:
as §1

The next experiment has as its target T3, human TLR7 (Homo sapiens, UniProt Q9NYK1).
T3 construct: host or cells: HEK-Blue cells (HEK293-derived reporter line)
T3 sequence (Q9NYK1 27-1049): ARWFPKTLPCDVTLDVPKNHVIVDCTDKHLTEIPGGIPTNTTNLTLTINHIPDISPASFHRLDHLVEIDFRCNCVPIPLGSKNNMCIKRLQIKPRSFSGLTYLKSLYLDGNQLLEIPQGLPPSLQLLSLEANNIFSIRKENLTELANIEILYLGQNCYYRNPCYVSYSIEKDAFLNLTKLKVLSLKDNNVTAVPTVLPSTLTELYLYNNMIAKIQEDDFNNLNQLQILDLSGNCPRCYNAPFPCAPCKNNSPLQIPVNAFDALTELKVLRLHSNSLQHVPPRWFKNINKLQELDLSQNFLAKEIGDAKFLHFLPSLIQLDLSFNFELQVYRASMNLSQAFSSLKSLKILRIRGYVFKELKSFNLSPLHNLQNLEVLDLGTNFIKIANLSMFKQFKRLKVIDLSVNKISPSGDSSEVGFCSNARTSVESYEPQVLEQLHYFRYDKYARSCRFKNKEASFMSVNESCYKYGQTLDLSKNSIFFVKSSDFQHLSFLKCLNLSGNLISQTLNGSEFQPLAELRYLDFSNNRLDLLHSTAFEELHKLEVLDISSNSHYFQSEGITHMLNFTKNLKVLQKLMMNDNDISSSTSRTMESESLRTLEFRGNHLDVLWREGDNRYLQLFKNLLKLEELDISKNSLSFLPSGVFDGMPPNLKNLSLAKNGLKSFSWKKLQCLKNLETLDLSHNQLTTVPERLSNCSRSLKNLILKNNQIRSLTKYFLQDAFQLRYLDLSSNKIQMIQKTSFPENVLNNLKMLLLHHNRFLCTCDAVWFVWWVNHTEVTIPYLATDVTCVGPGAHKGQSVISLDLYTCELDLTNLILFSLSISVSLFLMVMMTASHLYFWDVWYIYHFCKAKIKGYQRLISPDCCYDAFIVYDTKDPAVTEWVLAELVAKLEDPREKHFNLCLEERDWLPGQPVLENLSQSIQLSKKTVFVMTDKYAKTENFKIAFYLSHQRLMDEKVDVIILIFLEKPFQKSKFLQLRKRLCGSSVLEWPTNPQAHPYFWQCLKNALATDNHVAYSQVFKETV
Nature of the experiment: TLR7 inhibition reporter assay (HEK-Blue cells, SEAP reporter, gardiquimod stimulation). The note with it: HEK-Blue cells overexpressing human TLR7, SEAP reporter, gardiquimod 7.5 μM. Put shortly:
as §1

Consider `CNC(=O)CN1CCC(c2ccc3[nH]c(-c4cc(C(F)(F)F)c5nccn5c4)c(C(C)C)c3c2)CC1` [Example 373, 2-(4-(3-isopropyl-2-(8-(trifluoromethyl)imidazo[1,2-a]pyridin-6-yl)-1H-indol-5-yl)piperidin-1-yl)-N-methylacetamide], for which the IC50 against human TLR8 is less than 100 nM; against human TLR9, 1000 to 50000 nM; at human TLR7, less than 100 nM.
With `FC(F)Cc1c(-c2ccnc3[nH]ncc23)[nH]c2ccc(C3CCNCC3)cc12` [Example 178, 4-(3-(2,2-difluoroethyl)-5-(piperidin-4-yl)-1H-indol-2-yl)-1H-pyrazolo[3,4-b]pyridine], the IC50 is 100 to 1000 nM on human TLR8, 1000 to 50000 nM on human TLR9 and 100 to 1000 nM on human TLR7.
Turning to `CC(=O)N[C@H]1CCN(CC(=O)N2CCC(c3ccc4[nH]c(-c5ccnc6[nH]ncc56)c(C(C)C)c4c3)CC2)C1` [Example 581, (S)—N-(1-(2-(4-(3-isopropyl-2-(1H-pyrazolo[3,4-b]pyridin-4-yl)-1H-indol-5-yl)piperidin-1-yl)-2-oxoethyl)pyrrolidin-3-yl)acetamide], the concentration for half-maximal inhibition (IC50) against human TLR8 is less than 100 nM; on human TLR9 it was 1000 to 50000 nM; at human TLR7 it was less than 100 nM.
In the case of `Cc1c(-c2[nH]c3ccc(C4CCN(CC(=O)N(C)C)CC4)cc3c2C(C)C)ccc2nnnn12` [Example 308, 2-(4-(3-isopropyl-2-(5-methyltetrazolo[1,5-a]pyridin-6-yl)-1H-indol-5-yl)piperidin-1-yl)-N,N-dimethylacetamide], the figures for the IC50 at human TLR8, at human TLR9 and against human TLR7 were less than 100 nM, 1000 to 50000 nM and 100 to 1000 nM, respectively.
In the same order, the values of `Cc1cn2cc(-c3[nH]c4ccc(C5CCN(Cc6c[nH]c(C)n6)CC5)cc4c3C(C)C)ccc2n1` [Example 937, 6-(3-isopropyl-5-(1-((2-methyl-1H-imidazol-4-yl)methyl)piperidin-4-yl)-1H-indol-2-yl)-2-methylimidazo[1,2-a]pyridine] are 100 to 1000 nM, less than 100 nM and less than 100 nM.
Consider `Cc1cc2ncccc2cc1-c1[nH]c2ccc(C3CCNCC3)cc2c1C(C)C` [Example 140, 6-(3-isopropyl-5-(piperidin-4-yl)-1H-indol-2-yl)-7-methylquinoline], for which the results for the half-maximal inhibitory concentration (IC50) on human TLR8, against human TLR9 and at human TLR7 were 100 to 1000 nM, 1000 to 50000 nM and less than 100 nM, respectively.
In the same order, the values of `Cc1cc(-c2[nH]c3ccc(C4CCN(C5CCS(=O)(=O)CC5)CC4)cc3c2C(C)C)cc2cnnn12` [Example 794, 4-(4-(3-isopropyl-2-(7-methyl-[1,2,3]triazolo[1,5-a]pyridin-5-yl)-1H-indol-5-yl)piperidin-1-yl)tetrahydro-2H-thiopyran 1,1-dioxide] are less than 100 nM, 1000 to 50000 nM and less than 100 nM.
Regarding `CCc1c(-c2ccnc3[nH]ncc23)[nH]c2ccc(C3CCN(Cc4cnc[nH]4)CC3)cc12` [Example 863, 4-(5-(1-((1H-imidazol-5-yl)methyl)piperidin-4-yl)-3-ethyl-1H-indol-2-yl)-1H-pyrazolo[3,4-b]pyridine], the IC50 against human TLR8 was less than 100 nM; on human TLR9, 100 to 1000 nM; against human TLR7 it was 100 to 1000 nM.
For `Cc1nc2c(-c3[nH]c4ccc(C5CCNCC5)cc4c3C(C)C)cccn2n1` [Example 153, 8-(3-isopropyl-5-(piperidin-4-yl)-1H-indol-2-yl)-2-methyl-[1,2,4]triazolo[1,5-a]pyridine], the IC50 on human TLR8 is less than 100 nM; at human TLR9 it was 1000 to 50000 nM; against human TLR7, less than 100 nM.
With `Cc1n[nH]c2nccc(-c3[nH]c4ccc(C5CCN(Cc6cnc[nH]6)CC5)cc4c3C(C)C)c12` [Example 875, 4-(5-(1-((1H-imidazol-5-yl)methyl)piperidin-4-yl)-3-isopropyl-1H-indol-2-yl)-3-methyl-1H-pyrazolo[3,4-b]pyridine], the IC50 was less than 100 nM on human TLR8, 100 to 1000 nM against human TLR9 and 100 to 1000 nM at human TLR7.
On to `CCN(CC)C(=O)C1CCCN(CC(=O)N2CCC(c3ccc4[nH]c(-c5ccnc6[nH]ccc56)c(C(C)C)c4c3)CC2)C1` (stereo not drawn) [Example 568, N,N-diethyl-1-(2-(4-(3-isopropyl-2-(1H-pyrrolo[2,3-b]pyridin-4-yl)-1H-indol-5-yl)piperidin-1-yl)-2-oxoethyl) piperidine-3-carboxamide], for which the IC50 against human TLR8 is less than 100 nM; against human TLR9, 1000 to 50000 nM; on human TLR7, less than 100 nM.
As to `CC(C)c1c(-c2ccnc3[nH]ccc23)[nH]c2ccc(C3CCN(C(=O)CN(C)C)CC3)cc12` [Example 564, 2-(dimethylamino)-1-(4-(3-isopropyl-2-(1H-pyrrolo[2,3-b]pyridin-4-yl)-1H-indol-5-yl)piperidin-1-yl)ethan-1-one], the IC50 was less than 100 nM on human TLR8, 1000 to 50000 nM against human TLR9 and less than 100 nM against human TLR7.
